PubChem BioAssay AID1963856 (Molecular Pharmacology Branch, DTP, NCI, 2024)

Test system: LG0567-F671-PDC KRAS tumor spheroid viability
Assay: Anticancer human tumor LG0567-F671-PDC patient-derived lung adenocarcinoma cell line growth inhibition [KRAS2]
Conditions: spheroids with HUVEC and MSC; for IC50: curve of first compound; for viability, T/C: stronger effect = lower value
Description: Multicellular complex tumor spheroid response to RAS pathway inhibitors in combination with a targeted agents in patient-derived cell lines with oncogenic KRAS variants from multiple cancer types
A high-throughput screen of multi-cell type tumor spheroids was designed to identify active combinations of targeted small molecules and KRAS pathway inhibitors. Complex spheroids include a stromal component modeled by human endothelial cells (HUVEC) and fibroblasts modeled by human mesenchymal stem cells (MSCs). The concentration ranges selected for each drug and investigational agent were based upon clinically achievable concentrations if the clinical Cmax of the agent was known.
Compounds. The drugs and investigational agents: BI-3406 (NSC825286), BAY-293 (NSC824723), batoprotafib (TNO155; NSC825523), sotorasib (AMG 510; NSC818433), MRTX1257 (NSC819558), elimusertib (BAY 1895344; NSC800525), molibresib (GSK525762; NSC774829), temuterkib (LY3214996; NSC803410), venetoclax (NSC766270), alisertib (NSC759677), olaparib (NSC753686), talazoparib (NSC767125), erdafitinib (NSC781556), ipatasertib (NSC767898), cabozantinib (NSC761068), nintedanib (NSC756659), abemaciclib (NSC768073), docetaxel (NSC628503), trametinib (NSC758246), and sapanisertib (NSC764658) were obtained from the National Cancer Institute (NCI) Developmental Therapeutics Program Chemical Repository. The FDA-approved anticancer drug set is available from the Developmental Therapeutics Program. […] The stock solutions were prepared in dimethyl sulfoxide (DMSO, Sigma-Aldrich, St. Louis, MO, cat. D2650) at 800-fold the tested concentration and stored at -70 degrees C prior to their use. All drugs and investigational agents were tested over a range starting from a high concentration at or near the clinical Cmax and decreasing in half-log increments. If the clinical Cmax for an agent had not been determined, the highest concentration tested was 10 microM.
Cell Culture. All cells were maintained in an incubator at 37 degrees C and 5% CO2 with 95% humidity. The PDC lines were cultured according to standard operating procedures established by the NCI PDMR (https://pdmr.cancer.gov/sops/default.htm). Briefly, all PDCs were thawed and cultured in Matrigel-coated flasks prepared with a working solution of 1X Ham's F-12 nutrient mix, without supplementation (Invitrogen, Waltham, MA, cat. 11765054), 100 U/mL penicillin-streptomycin (Invitrogen, cat. 15140122), and 2.5% Matrigel (Corning Inc., Corning, NY, cat. 354248) for the first three passages. All PDCs were cultured in complete DMEM/F-12 media containing advanced DMEM/F-12 (Invitrogen, cat. 12634028), 4.9% defined fetal bovine serum, heat inactivated (HyClone Laboratories Inc., Logan, UT, cat. SH30070.03HI), 389 ng/mL hydrocortisone (Sigma-Aldrich, cat. H4001), 9.7 ng/mL human EGF recombinant protein (Invitrogen, cat. PHG0313), 23.4 microg/mL adenine (Sigma-Aldrich, cat. A2786), 97.3 U/mL penicillin-streptomycin (Invitrogen, cat. 15140122), 1.9 mM L-glutamine (Invitrogen, cat. 25030081), and 9.7 microM Y-27632 dihydrochloride (Tocris Bioscience, Bristol, United Kingdom, cat. 1254). The PDCs were cultured in complete DMEM/F12 media without 9.7 microM Y-27632 dihydrochloride for at least two passages prior to the screen. The established cell line HOP-62 was cultured in RPMI 1640 medium, HEPES (Invitrogen, cat. 22400105) with 10% defined fetal bovine serum (HyClone Laboratories Inc., cat. SH30070.03) and 2 mM L-glutamine (Invitrogen, cat. 25030081). The pooled donor HUVEC were cultured in endothelial cell growth medium 2 (PromoCell, Heidelberg, Germany, cat. C-22011) and the hMSC were cultured in mesenchymal stem cell growth medium 2 (PromoCell, cat. C-28009). For all experiments, HUVEC and hMSC were used at passages </=5, while the malignant cell lines were used at passages </=15. […]

[1] = second compound 0.1 µM, first compound 0.0316 µM
[2] = second compound 0.1 µM, first compound 0.1 µM
[3] = second compound 0.1 µM, first compound 0.316 µM
[4] = second compound 0.1 µM, first compound 1 µM
[5] = second compound 0.1 µM, first compound 3.16 µM
[6] = second compound 0.1 µM, first compound 10 µM
[7] = second compound 0.316 µM, first compound 0.0316 µM
[8] = second compound 0.316 µM, first compound 0.1 µM
[9] = second compound 0.316 µM, first compound 0.316 µM
[10] = second compound 0.316 µM, first compound 1 µM
[11] = second compound 0.316 µM, first compound 3.16 µM
[12] = second compound 0.316 µM, first compound 10 µM
[13] = second compound 1 µM, first compound 0.0316 µM
[14] = second compound 1 µM, first compound 0.1 µM
[15] = second compound 1 µM, first compound 0.316 µM
[16] = second compound 1 µM, first compound 1 µM
[17] = second compound 1 µM, first compound 3.16 µM
[18] = second compound 1 µM, first compound 10 µM
[19] = second compound 3.16 µM, first compound 0.0316 µM
[20] = second compound 3.16 µM, first compound 0.1 µM
[21] = second compound 3.16 µM, first compound 0.316 µM
[22] = second compound 3.16 µM, first compound 1 µM
[23] = second compound 3.16 µM, first compound 3.16 µM
[24] = second compound 3.16 µM, first compound 10 µM
[25] = second compound 10 µM, first compound 0.0316 µM
[26] = second compound 10 µM, first compound 0.1 µM
[27] = second compound 10 µM, first compound 0.316 µM
[28] = second compound 10 µM, first compound 1 µM
[29] = second compound 10 µM, first compound 3.16 µM
[30] = second compound 10 µM, first compound 10 µM
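Further: drug exposure lasted seven days after spheroids formed for three days.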
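Wherever viability, T/C is given: 100% = DMSO vehicle control viability.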

Row | SMILES | IC50 (second compound 0.1 µM) | IC50 (second compound 0.316 µM) | IC50 (second compound 1 µM) | IC50 (second compound 3.16 µM) | IC50 (second compound 10 µM) | viability, T/C [1] | viability, T/C [2] | viability, T/C [3] | viability, T/C [4] | viability, T/C [5] | viability, T/C [6] | viability, T/C [7] | viability, T/C [8] | viability, T/C [9] | viability, T/C [10] | viability, T/C [11] | viability, T/C [12] | viability, T/C [13] | viability, T/C [14] | viability, T/C [15] | also measured
1 | COC(=O)c1ccc2c(C(=Nc3ccc(N(C)C(=O)CN4CCN(C)CC4)cc3)c3ccccc3)c(O)[nH]c2c1 + C=CC(=O)N1CCN(c2nc(=O)n(-c3c(C)ccnc3C(C)C)c3nc(-c4c(O)cccc4F)c(F)cc23)C(C)C1 | < 31.6 nM | < 31.6 nM | < 31.6 nM | < 31.6 nM | < 31.6 nM | 23.1% | 22% | 25.9% | 28.3% | 30% | 33% | 20.8% | 23.3% | 20.1% | 23.2% | 29.7% | 27.9% | 21.7% | 22% | 21.6% | viability, T/C [16]: 32%; viability, T/C [17]: 26.6%; viability, T/C [18]: 30.1%; viability, T/C [19]: 18.8%; viability, T/C [20]: 18.8%; viability, T/C [21]: 19.6%; viability, T/C [22]: 22.6%; viability, T/C [23]: 28%; viability, T/C [24]: 30.1%; viability, T/C [25]: 26.3%; viability, T/C [26]: 24.4%; viability, T/C [27]: 22.2%; viability, T/C [28]: 24.6%; viability, T/C [29]: 27.9%; viability, T/C [30]: 1.41%
2 | O=C(c1cc(Cc2n[nH]c(=O)c3ccccc23)ccc1F)N1CCN(C(=O)C2CC2)CC1 + C=CC(=O)N1CCN(c2nc(=O)n(-c3c(C)ccnc3C(C)C)c3nc(-c4c(O)cccc4F)c(F)cc23)C(C)C1 | < 31.6 nM | < 31.6 nM | < 31.6 nM | < 31.6 nM | < 31.6 nM | 24.8% | 21.5% | 23.1% | 26.7% | 29.2% | 33.6% | 23.1% | 22.8% | 25.1% | 21.5% | 26.9% | 30.4% | 25.8% | 25.6% | 25.2% | viability, T/C [16]: 23.6%; viability, T/C [17]: 25.4%; viability, T/C [18]: 30.4%; viability, T/C [19]: 25.1%; viability, T/C [20]: 27.8%; viability, T/C [21]: 25.7%; viability, T/C [22]: 23.8%; viability, T/C [23]: 23.9%; viability, T/C [24]: 31.8%; viability, T/C [25]: 32.1%; viability, T/C [26]: 32.1%; viability, T/C [27]: 31.9%; viability, T/C [28]: 30%; viability, T/C [29]: 30.4%; viability, T/C [30]: 28.3%
